From patent US20240342138A1, “MICROTUBULE TARGETING AGENTS” (BPGbio, Inc., priority 2023, published 2024)
Where two headings read alike, the source gives them in different places.

Test: Biodistribution after oral administration
Format: in vivo, Sprague-Dawley Rats
Conditions: 75 mg/kg oral; for concentration at 8 h / Kp at 8 h / concentration at 0.25 h / Kp at 0.25 h / concentration at 2 h / Kp at 2 h: male, Sprague-Dawley, rat; for concentration at 8 h / concentration at 0.25 h / concentration at 2 h: read-out: Mean plasma/tissue concentration; for Kp at 8 h / Kp at 0.25 h / Kp at 2 h: read-out: Ratio (tissue to plasma)
Experimental: Male Sprague-Dawley Rats (total of 6 animals) 6 to 8 weeks of age (210-227 g) was used in this biodistribution study. Compound 1 was dosed at 75 mg/kg to all animals through oral route of administration at a 10 ml/kg dose volume. Compound 1 formulation was freshly prepared in Tween-80+0.5% methyl cellulose and maintained at room temperature until dosing. Dose was administered in all animals under fasted conditions. […] Heart, lung, liver, kidney, stomach, small intestine, large intestine, skeletal muscle, brain, spleen, pancreas and adipose were harvested while blood was processed to plasma for bioanalytical quantification of Compound 1.
Compound 1 bioanalytical assay was developed and validated using the SCIEX 6500 LC-MS/MS. A mobile phase (isocratic flow) comprised of Acetonitrile and 0.2% formic acid in MilliQ water in a Atlantis dC18-HPLC column (50×4.6 mm, […]), with a flow rate of 0.9 mL/min and a run time of 2.20 min. Mass transition (m/z) of 375.040 and 188.100 was used for detection of Compound 1 at an LLOQ of 2.14 ng/mL.

With `COc1ccccc1-c1nc(CNC(=O)c2ccccc2OC(F)F)n[nH]1` [Compound 1, 2-(difluoromethoxy)-N-[[5-(2-methoxyphenyl)-1H-1,2,4-triazol-3-yl]methyl]benzamide] the Tissue distribution was “Drug distribution was revealed across all tissues”, the “Blood brain barrier penetration” value (8 hours) was “brain barrier penetration observed” and the “Percentage (plasma to tissue)” value (Adipose tissue, 0.25 hours) was 1.94%. The “Percentage (plasma to tissue)” value (Adipose tissue, 2 hours) was 2.36%, the “Percentage (plasma to tissue)” value (Adipose tissue, 8 hours) was 3.06% and the “Percentage (plasma to tissue)” value (Brain, 0.25 hours) was 0.79%. The “Percentage (plasma to tissue)” value (Brain, 2 hours) was 0.57%, the “Percentage (plasma to tissue)” value (Brain, 8 hours) was 2.18% and the “Percentage (plasma to tissue)” value (Heart, 0.25 hours) was 1.89%. For the same compound, the “Percentage (plasma to tissue)” value (Heart, 2 hours) was 2.59%, the “Percentage (plasma to tissue)” value (Heart, 8 hours) was 4.19% and the “Percentage (plasma to tissue)” value (Kidney, 0.25 hours) was 2.99%. For the same compound, the “Percentage (plasma to tissue)” value (Kidney, 2 hours) was 2.92%, the “Percentage (plasma to tissue)” value (Kidney, 8 hours) was 4.16% and the “Percentage (plasma to tissue)” value (Liver, 0.25 hours) was 12.5%. For the same compound, the “Percentage (plasma to tissue)” value (Liver, 2 hours) was 10.6%, the “Percentage (plasma to tissue)” value (Liver, 8 hours) was 16.5% and the “Percentage (plasma to tissue)” value (Lungs, 0.25 hours) was 3.91%. The “Percentage (plasma to tissue)” value (Lungs, 2 hours) was 2.93%, the “Percentage (plasma to tissue)” value (Lungs, 8 hours) was 5.06% and the “Percentage (plasma to tissue)” value (Pancreas, 0.25 hours) was 3.42%. For the same compound, the “Percentage (plasma to tissue)” value (Pancreas, 2 hours) was 3.18%, the “Percentage (plasma to tissue)” value (Pancreas, 8 hours) was 7.60% and the “Percentage (plasma to tissue)” value (Plasma, 0.25 hours) was 3.59%. The “Percentage (plasma to tissue)” value (Plasma, 2 hours) was 2.29%, the “Percentage (plasma to tissue)” value (Plasma, 8 hours) was 5.37% and the “Percentage (plasma to tissue)” value (Skeletal Muscle, 0.25 hours) was 0.77%. For the same compound, the “Percentage (plasma to tissue)” value (Skeletal Muscle, 2 hours) was 0.85%, the “Percentage (plasma to tissue)” value (Skeletal Muscle, 8 hours) was 20.5% and the “Percentage (plasma to tissue)” value (Small intestine, 0.25 hours) was 21.9%. For the same compound, the “Percentage (plasma to tissue)” value (Small intestine, 2 hours) was 21.9%, the “Percentage (plasma to tissue)” value (Small intestine, 8 hours) was 4.82% and the “Percentage (plasma to tissue)” value (Spleen, 0.25 hours) was 4.26%. For the same compound, the “Percentage (plasma to tissue)” value (Spleen, 2 hours) was 1.68%, the “Percentage (plasma to tissue)” value (Spleen, 8 hours) was 7.84% and the “Percentage (plasma to tissue)” value (Stomach, 0.25 hours) was 42.7%. The “Percentage (plasma to tissue)” value (Stomach, 2 hours) was 48.1%, the “Percentage (plasma to tissue)” value (Stomach, 8 hours) was 18.8% and the concentration at 8 h (lung, Lungs, 8 hours) was 78.2 ng/g. The Kp at 8 h (lung, Lungs, 8 hours) was 0.94, the concentration at 0.25 h (Adipose tissue, 0.25 hours) was 1530 ng/g and the Kp at 0.25 h (Adipose tissue, 0.25 hours) was 0.54. It also gave a concentration at 2 h (Adipose tissue, 2 hours) of 2030 ng/g, a Kp at 2 h (Adipose tissue, 2 hours) of 1.03 and a concentration at 8 h (Adipose tissue, 8 hours) of 47.2 ng/g. The Kp at 8 h (Adipose tissue, 8 hours) was 0.57, the concentration at 0.25 h (Brain, 0.25 hours) was 624 ng/g and the Kp at 0.25 h (Brain, 0.25 hours) was 0.22. The concentration at 2 h (Brain, 2 hours) was 494 ng/g, the Kp at 2 h (Brain, 2 hours) was 0.25 and the concentration at 8 h (Brain, 8 hours) was 33.6 ng/g. It also gave a Kp at 8 h (Brain, 8 hours) of 0.4, a concentration at 0.25 h (Heart, 0.25 hours) of 1490 ng/g and a Kp at 0.25 h (Heart, 0.25 hours) of 0.53. It also gave a concentration at 2 h (Heart, 2 hours) of 2230 ng/g, a Kp at 2 h (Heart, 2 hours) of 1.13 and a concentration at 8 h (Heart, 8 hours) of 64.8 ng/g. It also gave a Kp at 8 h (Heart, 8 hours) of 0.78, a concentration at 0.25 h (Kidney, 0.25 hours) of 2360 ng/g and a Kp at 0.25 h (Kidney, 0.25 hours) of 0.83. For the same compound, the concentration at 2 h (Kidney, 2 hours) was 2520 ng/g, the Kp at 2 h (Kidney, 2 hours) was 1.27 and the concentration at 8 h (Kidney, 8 hours) was 64.2 ng/g. For the same compound, the Kp at 8 h (Kidney, 8 hours) was 0.77, the concentration at 0.25 h (Liver, 0.25 hours) was 9890 ng/g and the Kp at 0.25 h (Liver, 0.25 hours) was 3.49. For the same compound, the concentration at 2 h (Liver, 2 hours) was 9140 ng/g, the Kp at 2 h (Liver, 2 hours) was 4.63 and the concentration at 8 h (Liver, 8 hours) was 255 ng/g. The Kp at 8 h (Liver, 8 hours) was 3.06, the concentration at 0.25 h (Lungs, 0.25 hours) was 3090 ng/g and the Kp at 0.25 h (Lungs, 0.25 hours) was 1.09. The concentration at 2 h (Lungs, 2 hours) was 2520 ng/g, the Kp at 2 h (Lungs, 2 hours) was 1.28 and the concentration at 0.25 h (Pancreas, 0.25 hours) was 2700 ng/g. For the same compound, the Kp at 0.25 h (Pancreas, 0.25 hours) was 0.95, the concentration at 2 h (Pancreas, 2 hours) was 2740 ng/g and the Kp at 2 h (Pancreas, 2 hours) was 1.39. For the same compound, the concentration at 8 h (Pancreas, 8 hours) was 117 ng/g, the Kp at 8 h (Pancreas, 8 hours) was 1.41 and the concentration at 0.25 h (Plasma, 0.25 hours) was 2830 ng/mL. For the same compound, the concentration at 2 h (Plasma, 2 hours) was 1980 ng/mL, the concentration at 8 h (Plasma, 8 hours) was 83.1 ng/mL and the concentration at 0.25 h (Skeletal Muscle, 0.25 hours) was 607 ng/g. It also gave a Kp at 0.25 h (Skeletal Muscle, 0.25 hours) of 0.21, a concentration at 2 h (Skeletal Muscle, 2 hours) of 734 ng/g and a Kp at 2 h (Skeletal Muscle, 2 hours) of 0.37. For the same compound, the concentration at 8 h (Skeletal Muscle, 8 hours) was 316 ng/g, the Kp at 8 h (Skeletal Muscle, 8 hours) was 3.81 and the concentration at 0.25 h (Small intestine, 0.25 hours) was 16700 ng/g. The Kp at 0.25 h (Small intestine, 0.25 hours) was 5.9, the concentration at 2 h (Small intestine, 2 hours) was 18800 ng/g and the Kp at 2 h (Small intestine, 2 hours) was 9.53. The concentration at 8 h (Small intestine, 8 hours) was 74.4 ng/g, the Kp at 8 h (Small intestine, 8 hours) was 0.9 and the concentration at 0.25 h (Spleen, 0.25 hours) was 3360 ng/g. It also gave a Kp at 0.25 h (Spleen, 0.25 hours) of 1.19, a concentration at 2 h (Spleen, 2 hours) of 1450 ng/g and a Kp at 2 h (Spleen, 2 hours) of 0.73. It also gave a concentration at 8 h (Spleen, 8 hours) of 121 ng/g, a Kp at 8 h (Spleen, 8 hours) of 1.46 and a concentration at 0.25 h (Stomach, 0.25 hours) of 33700 ng/g. The Kp at 0.25 h (Stomach, 0.25 hours) was 11.9, the concentration at 2 h (Stomach, 2 hours) was 41500 ng/g and the Kp at 2 h (Stomach, 2 hours) was 21. For the same compound, the concentration at 8 h (Stomach, 8 hours) was 290 ng/g and the Kp at 8 h (Stomach, 8 hours) was 3.5.
